Measurements reported in ChEMBL document CHEMBL3272271, “Folate antagonists. 13. 2,4-Diamino-6-](alpha,alpha,alpha-trifluoro-m-tolyl)thio]quinazoline and related 2,4-diamino-6-[(phenyl- and naphthyl)thio]quinazolines, a unique class of antimetabolites with extraordinary antimalarial and antibacterial effects” (J Med Chem, 1978).
Converted amounts (≈) assume the structure as drawn. The source made the active and inactive calls. The calls are words filed in the database; no cut-off is given here.

Tests used:
Plasmodium falciparum [1] = experiment: Antimalarial activity against pyrimethamine-sensitive Plasmodium falciparum Vietnam Oak Knoll infected in Aotus trivirgatus owl monkey model assessed as cure from parasite infection at 0.098 to 1.56 mg/kg, po qd for 7 days relative to control; format: functional; settings: dose mg/kg 0.098-1.56
Plasmodium berghei [2] = experiment: Antimalarial activity against Plasmodium berghei infected in mouse assessed as disease cure from parasite infection at 320 mg/kg, sc administered 72 hrs after infection; format: functional, organism-based; set-up: dose 320 mg/kg
Plasmodium berghei [3] = experiment: Antimalarial activity against cycloguanil-resistant Plasmodium berghei assessed as drug resistance; format: functional, organism-based
Plasmodium gallinaceum [4] = experiment: Antimalarial activity against trophozoite-induced Plasmodium gallinaceum infected in white leghorn chicken assessed as disease cure from parasite infection at 160 mg/kg, sc administered 72 hrs after infection; format: functional, organism-based; set-up: dose 160 mg/kg
Plasmodium berghei [5] = experiment: Antimalarial activity against Plasmodium berghei infected in mouse assessed as disease cure from parasite infection at 40 mg/kg, sc administered 72 hrs after infection; format: functional, organism-based; set-up: dose 40 mg/kg
Shigella sonnei = experiment: Antibacterial activity against Shigella sonnei C-10 by gradient plate test; format: functional
Plasmodium berghei [6] = experiment: Antimalarial activity against chloroquine-resistant Plasmodium berghei assessed as drug resistance; format: functional, organism-based
Plasmodium gallinaceum [7] = experiment: Antimalarial activity against trophozoite-induced Plasmodium gallinaceum infected in white leghorn chicken assessed as increase in mean survival days of host at 80 mg/kg, sc administered 72 hrs after infection relative to control; format: functional; settings: route subcutaneous
Plasmodium berghei [8] = experiment: Antimalarial activity against Plasmodium berghei infected in mouse assessed as disease cure from parasite infection at 20 mg/kg, sc administered 72 hrs after infection; format: functional, organism-based; set-up: dose 20 mg/kg
Plasmodium falciparum [9] = experiment: Antimalarial activity against chloroquine-susceptible, pyrimethamine-resistant Plasmodium falciparum Malayan Camp infected in Aotus trivirgatus owl monkey model assessed as cure from parasite infection at >2.5 mg/kg, po qd for 7 days relative to control; format: functional
Plasmodium berghei [10] = experiment: Antimalarial activity against Plasmodium berghei infected in mouse assessed as disease cure from parasite infection at 640 mg/kg, sc administered 72 hrs after infection; format: functional, organism-based; set-up: dose 640 mg/kg
Pseudomonas aeruginosa = experiment: Antibacterial activity against Pseudomonas aeruginosa 28 by gradient plate test; format: functional
Plasmodium falciparum [11] = experiment: Antimalarial activity against pyrimethamine-sensitive Plasmodium falciparum Vietnam Oak Knoll infected in Aotus trivirgatus owl monkey model assessed as cure from parasite infection at 0.6 mg/kg, po qd for 7 days relative to control; format: functional
Plasmodium gallinaceum [12] = experiment: Antimalarial activity against sporozoite-induced Plasmodium gallinaceum infected in white leghorn chicken assessed as disease cure from parasite infection at 80 mg/kg, sc administered 72 hrs after infection; format: functional, organism-based; set-up: dose 80 mg/kg
Plasmodium gallinaceum [13] = experiment: Antimalarial activity against trophozoite-induced Plasmodium gallinaceum infected in white leghorn chicken assessed as increase in mean survival days of host at 320 mg/kg, sc administered 72 hrs after infection relative to control; format: functional; settings: route subcutaneous
Plasmodium berghei [14] = experiment: Antimalarial activity against Plasmodium berghei infected in mouse assessed as disease cure from parasite infection at 160 mg/kg, sc administered 72 hrs after infection; format: functional, organism-based; set-up: dose 160 mg/kg
Plasmodium gallinaceum [15] = experiment: Antimalarial activity against trophozoite-induced Plasmodium gallinaceum infected in white leghorn chicken assessed as increase in mean survival days of host at 20 mg/kg, sc administered 72 hrs after infection relative to control; format: functional; settings: route subcutaneous
Enterococcus faecalis = experiment: Antibacterial activity against Streptococcus faecalis MGH-2 by gradient plate test; format: functional
Plasmodium gallinaceum [16] = experiment: Antimalarial activity against trophozoite-induced Plasmodium gallinaceum infected in white leghorn chicken assessed as increase in mean survival days of host at 160 mg/kg, sc administered 72 hrs after infection relative to control; format: functional; settings: route subcutaneous
Plasmodium berghei [17] = experiment: Antimalarial activity against Plasmodium berghei infected in mouse assessed as increase in mean survival days of host at 2.5 mg/kg, sc administered 72 hrs after infection relative to control; format: functional; settings: route subcutaneous
Plasmodium falciparum [18] = experiment: Antimalarial activity against chloroquine-susceptible, pyrimethamine-resistant Plasmodium falciparum Malayan Camp infected in Aotus trivirgatus owl monkey model assessed as cure from parasite infection at 0.39 to 5 mg/kg, po qd for 7 days relative to control; format: functional; settings: dose mg/kg 0.39-5
Plasmodium gallinaceum [19] = experiment: Antimalarial activity against trophozoite-induced Plasmodium gallinaceum infected in white leghorn chicken assessed as increase in mean survival days of host at 10 mg/kg, sc administered 72 hrs after infection relative to control; format: functional; settings: route subcutaneous
Plasmodium berghei [20] = experiment: Antimalarial activity against Plasmodium berghei infected in mouse assessed as disease cure from parasite infection at 80 mg/kg, sc administered 72 hrs after infection; format: functional, organism-based; set-up: dose 80 mg/kg
Plasmodium berghei [21] = experiment: Antimalarial activity against Plasmodium berghei infected in mouse assessed as increase in mean survival days of host at 5 mg/kg, sc administered 72 hrs after infection relative to control; format: functional; settings: route subcutaneous
Plasmodium berghei [22] = experiment: Ratio of quinine hydrochloride SD90 to compound SD90 for trophozoite-induced Plasmodium berghei infected in mouse assessed as daily dose required to suppression of 90% parasite infection administered with diet for 6 days; format: functional
Plasmodium berghei [23] = experiment: Antimalarial activity against Plasmodium berghei infected in mouse assessed as increase in mean survival days of host at 1.25 mg/kg, sc administered 72 hrs after infection relative to control; format: functional; settings: route subcutaneous
Plasmodium berghei [24] = experiment: Antimalarial activity against Plasmodium berghei infected in mouse assessed as increase in mean survival days of host at 10 mg/kg, sc administered 72 hrs after infection relative to control; format: functional; settings: route subcutaneous
Escherichia coli = experiment: Antibacterial activity against Escherichia coli Vogel by gradient plate test; format: functional
Plasmodium gallinaceum [25] = experiment: Antimalarial activity against sporozoite-induced Plasmodium gallinaceum infected in white leghorn chicken assessed as disease cure from parasite infection at 160 mg/kg, sc administered 72 hrs after infection; format: functional, organism-based; set-up: dose 160 mg/kg
Staphylococcus aureus [26] = experiment: Antibacterial activity against drug-resistant Staphylococcus aureus S18713 by gradient plate test; format: functional
Plasmodium gallinaceum [27] = experiment: Antimalarial activity against trophozoite-induced Plasmodium gallinaceum infected in white leghorn chicken assessed as increase in mean survival days of host at 40 mg/kg, sc administered 72 hrs after infection relative to control; format: functional; settings: route subcutaneous
Plasmodium gallinaceum [28] = experiment: Antimalarial activity against sporozoite-induced Plasmodium gallinaceum infected in white leghorn chicken assessed as disease cure from parasite infection at 320 mg/kg, sc administered 72 hrs after infection; format: functional, organism-based; set-up: dose 320 mg/kg
Staphylococcus aureus [29] = experiment: Antibacterial activity against Staphylococcus aureus UC-96 by gradient plate test; format: functional
Plasmodium berghei [30] = experiment: Antimalarial activity against trophozoite-induced Plasmodium berghei infected in mouse assessed as daily dose required to suppression of 90% parasite infection administered with diet for 6 days; format: functional
Plasmodium gallinaceum [31] = experiment: Antimalarial activity against trophozoite-induced Plasmodium gallinaceum infected in white leghorn chicken assessed as disease cure from parasite infection at 320 mg/kg, sc administered 72 hrs after infection; format: functional, organism-based; set-up: dose 320 mg/kg
Plasmodium berghei [32] = experiment: Antimalarial activity against Plasmodium berghei infected in mouse assessed as increase in mean survival days of host at 20 mg/kg, sc administered 72 hrs after infection relative to control; format: functional; settings: route subcutaneous
Plasmodium gallinaceum [33] = experiment: Antimalarial activity against sporozoite-induced Plasmodium gallinaceum infected in white leghorn chicken assessed as disease cure from parasite infection at 10 mg/kg, sc administered 72 hrs after infection; format: functional, organism-based; set-up: dose 10 mg/kg
Plasmodium gallinaceum [34] = experiment: Antimalarial activity against sporozoite-induced Plasmodium gallinaceum infected in white leghorn chicken assessed as increase in mean survival days of host at 10 mg/kg, sc administered 72 hrs after infection relative to control; format: functional; settings: route subcutaneous
Plasmodium berghei [35] = experiment: Antimalarial activity against Plasmodium berghei infected in mouse assessed as increase in mean survival days of host at 40 mg/kg, sc administered 72 hrs after infection relative to control; format: functional; settings: route subcutaneous
Plasmodium gallinaceum [36] = experiment: Antimalarial activity against sporozoite-induced Plasmodium gallinaceum infected in white leghorn chicken assessed as disease cure from parasite infection at 20 mg/kg, sc administered 72 hrs after infection; format: functional, organism-based; set-up: dose 20 mg/kg
Plasmodium gallinaceum [37] = experiment: Antimalarial activity against sporozoite-induced Plasmodium gallinaceum infected in white leghorn chicken assessed as disease cure from parasite infection at 40 mg/kg, sc administered 72 hrs after infection; format: functional, organism-based; set-up: dose 40 mg/kg

Nc1nc(N)c2cc(Sc3ccc4ccccc4c3)ccc2n1 was tested, and the Activity (Plasmodium falciparum [1]) was >50%, the Activity (Plasmodium berghei [2]) was “Active” and the Activity (Plasmodium berghei [3]) was “Active”. For the same compound, the Activity (Plasmodium gallinaceum [4]) was “Active”, the Activity (Plasmodium berghei [5]) was “Active” and the MIC (Shigella sonnei) was 2.5 µg/mL (≈ 7.85 µM). The Activity (Plasmodium berghei [6]) was “inactive”, the MST (Plasmodium gallinaceum [7]) was 16.2 days and the Activity (Plasmodium berghei [8]) was “Active”. The Activity (Plasmodium falciparum [9]) was >50%, the Activity (Plasmodium berghei [10]) was “Active” and the MIC (Pseudomonas aeruginosa) was > 25 µg/mL. For the same compound, the Activity (Plasmodium falciparum [11]) was >50%, the Activity (Plasmodium gallinaceum [12]) was “Active” and the MST (Plasmodium gallinaceum [13]) was 16 days. For the same compound, the Activity (Plasmodium berghei [14]) was “Active”, the MST (Plasmodium gallinaceum [15]) was 7.8 days and the MIC (Enterococcus faecalis) was < 0.25 µg/mL. For the same compound, the MST (Plasmodium gallinaceum [16]) was 15 days, the MST (Plasmodium berghei [17]) was 5.3 days and the Activity (Plasmodium falciparum [18]) was >50%. For the same compound, the MST (Plasmodium gallinaceum [19]) was 6.2 days, the Activity (Plasmodium berghei [20]) was “Active” and the MST (Plasmodium berghei [21]) was 6.5 days. The Ratio (Plasmodium berghei [22]) was 880, the MST (Plasmodium berghei [23]) was 2.9 days and the MST (Plasmodium berghei [24]) was 11.3 days. For the same compound, the MIC (Escherichia coli) was < 0.25 µg/mL, the Activity (Plasmodium gallinaceum [25]) was “Active” and the MIC (Staphylococcus aureus [26]) was < 0.25 µg/mL. For the same compound, the MST (Plasmodium gallinaceum [27]) was 12.4 days, the Activity (Plasmodium gallinaceum [28]) was “Active” and the MIC (Staphylococcus aureus [29]) was < 0.25 µg/mL. The SD90 (Plasmodium berghei [30]) was 0.08 mg/kg/day and the Activity (Plasmodium gallinaceum [31]) was “Active”.

With Nc1nc(N)c2cc(Sc3cccc(C(F)(F)F)c3)ccc2n1 [WR-159412] the Activity (Plasmodium falciparum [1]) was >50%, the MST (Plasmodium berghei [32]) was 12.7 days and the Activity (Plasmodium gallinaceum [33]) was “Active”. The Activity (Plasmodium berghei [2]) was “Active”, the Activity (Plasmodium berghei [5]) was “Active” and the MST (Plasmodium gallinaceum [34]) was 7.3 days. The Activity (Plasmodium falciparum [9]) was >50%, the Activity (Plasmodium berghei [10]) was “Active” and the Activity (Plasmodium falciparum [11]) was >50%. For the same compound, the Activity (Plasmodium gallinaceum [12]) was “Active”, the Activity (Plasmodium berghei [14]) was “Active” and the MST (Plasmodium berghei [35]) was 14.9 days. For the same compound, the Activity (Plasmodium gallinaceum [36]) was “Active”, the MST (Plasmodium gallinaceum [16]) was 15.4 days and the MST (Plasmodium berghei [17]) was 2.7 days. The Activity (Plasmodium falciparum [18]) was >50%, the Activity (Plasmodium berghei [20]) was “Active” and the MST (Plasmodium berghei [21]) was 8.7 days. The MST (Plasmodium berghei [23]) was 0.5 days, the MST (Plasmodium berghei [24]) was 9.1 days and the Activity (Plasmodium gallinaceum [25]) was “Active”. The Activity (Plasmodium gallinaceum [28]) was “Active” and the Activity (Plasmodium gallinaceum [37]) was “Active”.
